Assays:
[1] = Binding of novel bisphosphonate conjugates on hydroxyapatite powder (UV spectra before/after treatment); conditions: pH 7.0
Method: To estimate the binding of NBC on hydroxyapatite (the mineral component of bone) UV spectra of NBC at pH7 were recorded before and after treatment with hydroxyapatite. […] The supernatant was separated and an absorption spectrum of the supernatant was recorded.

[2] = Biodistribution in rats of vitamin B6 - bisphosphonate conjugates in complex with 99mTc; assay type: in vivo; conditions: as complexing agent of the bone-scanning agent; general statement
Method: The probes were prepared with molar concentration of about 10^-3 molar at pH 6.5, with a molar ratio SnCl2 to a conjugate 1:10 and 1 m^cl/ml pertechnetate.
Male rats weighting […] were injected intravenously via the tail vein. The rats were sacrificed and dissected at selected times - 30 min., 60 min., and 120 min. The activity uptake in bone, blood, muscle, liver and spleen of each rat was measured. The results obtained indicate 40-45% of initial radioactivity injected was accumulated at bone skeleton after 60-90 min.

[3] = HPLC-analysis of stability of nucleotide-bisphosphonate conjugate in serum; assay type: in vitro ADME; conditions: mouse/human serum; Fig.3
Method: (§1) HPLC-analysis of hydrolytic stability of conjugate VI, Fig. 2, in buffer and in human serum was carried out under the following conditions: column Nucleosil C-18 (30-C18), 0-4% triethylammonium acetate (0.1 M, pH6.8); 20 min, flow rate -1 ml/min. […] The stability of the conjugate was decreased in mouse/human serum as it is evidenced from data on Fig.3. However, the conjugate is stable enough to be delivered to a skeleton in intact form.

[4] = HPLC-analysis of hydrolytic stability of nucleotide-bisphosphonate conjugate in buffer; assay type: physicochemical
Method: as §1

Row | SMILES | % of bound compound [1] | % of nonbound compound [1] | uptake in bone [2] | stability of the conjugate in serum [3] | hydrolytic stability (stable for several hours) ([4]; buffer solution at pH 5-7, several hours) | hydrolytic stability of the P-O-P bond ([4]; incubation either at pH >8.0 or at pH<3.0)
1 | Cc1ncc(COP(=O)(O)O)c(CNCCC(O)(P(=O)(O)O)P(=O)(O)O)c1O [(i), 3 - (N-[5 '-phospho] -pyridoxylamino) -1-hydroxypropyliden-1,1-bisphosphonic acid] | 100% | 0% | – | – | – | –
2 | Cc1ncc(CO)c(CNCCC(O)(P(=O)(O)O)P(=O)(O)O)c1O [(ii), 3-(N-pyridoxylamino) -1-hydroxypropyliden-1,1-bisphosphonic acid] | 100% | 0% | high and rapid uptake in bone | – | – | –
3 | Cc1ncc(COP(=O)(O)O)c(CNC(P(=O)(O)O)P(=O)(O)O)c1O [(iii), 1 - (N-[5 '-phospho] -pyridoxylamino)-methylene-1,1-bisphosphonic acid] | 100% | 0% | – | – | – | –
4 | Cc1ncc(CO)c(CNC(P(=O)(O)O)P(=O)(O)O)c1O [(iv), 1 -(N-pyridoxyl amino) -methylen-1, 1 -bisphosphonic acid] | 100% | 0% | – | – | – | –
5 | O=c1[nH]c(=O)n(COCCOCCOP(=O)(O)CP(=O)(O)O)cc1F [II, Anhydride of 1-([2-{hydroxyethoxy}ethoxy]methylene)-5-fluorouracil and methylenediphosphonic acid] | 87,26% | 12,74% | – | – | – | –
6 | O=c1[nH]c(=O)n(C2OC(COP(=O)(O)OP(=O)(O)CP(=O)(O)O)C(O)C2O)cc1F (stereo not shown) [III, Anhydride of 5-fluorouridine-5'-monophosphoric acid and methylenediphosphonic acid] | 70,05% | – | – | – | – | –
7 | CC(O)(P(=O)(O)O)P(=O)(O)OP(=O)(O)OCC1OC(n2cc(F)c(=O)[nH]c2=O)C(O)C1O (stereo not shown) [VI, Anhydride of 5-fluorouridine-5'-monophosphoric acid and 1-hydroxyethylidene-1,1-bisphosphonic acid] | 69,66% | 30,34% | – | decreased | more than 97% | Hydrolytic cleavage of the conjugate P-O-P bond occurred
8 | CC(O)(P(=O)(O)O)P(=O)(O)OP(=O)(O)OCC1OC(n2ccc(=O)[nH]c2=O)C(O)C1O (stereo not shown) [VII, Anhydride of uridine-5 '-monophosphoric acid and 1-hydroxyethylidene-1,1 diphosphonic acid] | 88,68% | 11,32% | – | – | – | –
